Reference: US20090259167A1, “METHODS AND COMPOSITIONS FOR DOSE-DEPENDENT PHOTODYNAMIC THERAPY OF DISORDERS” (THE GENERAL HOSPITAL CORPORATION, priority 2008, published 2009)
“Also recorded” adds a separate entry of the source.

Columns and labels:
[1] = test system: porphyrin accumulation in skin; assay: Digital fluorescence gross photography of porphyrin accumulation after intradermal ALA; type: in vivo, Yorkshire swine
From the text: (§1) Three female domestic Yorkshire swine weighing 30 to 50 kg were used in the study, which was approved by the MGH Institutional Subcommittee for Research Animal Care. Porcine and human skin have similar histology and physiology, with notable differences. Pigs have smaller sebaceous glands and a thicker dermis. However their thick stratum corneum, lack of fur and metabolism of topical or injected ALA are similar to humans (Meyer 1996), (de Blois, Thissen et al. 2001).
(§2) 5-Aminolevulinic acid hydrochloride from Biosynth International Inc. (Naperville, Ill., USA) was diluted in normal saline (0.9% Sodium Chloride, Hospira, Inc., Illinois, USA) into different concentrations. ALA solutions were titrated in halves from 1.000% to 0.0005%. Osmolarity was not corrected. ALA solution pH varied with concentration from acidic to neutral (1.000%≈pH 1; 0.500%≈pH 3; 0.250 to 0.008%≈pH 5; 0.004 to 0.0005%≈pH 7). Normal saline was used as a control (pH=7). […] In this study, ALA solutions were not buffered because buffering can induce a delay in PpIX formation (Bech et al. 1997). Unbuffered solutions were prepared immediately before intradermal injection. A volume of 0.05-cc/cm^2 skin area was injected at a depth of 2 to 4 mm, using a special 4 mm-long 30 gauge needle (TSK STEiJECT, Toshigi-ken, Japan). The beveled outlet of this needle covers the distal 1 mm near its tip.
For each concentration, 12 repetitions were performed for statistical validation. One centimeter separated each site of application from others at the same concentration. After ALA administration, the skin was occluded with plastic sheeting (Saran wrap) and covered with aluminum foil, to avoid light exposure during a 3-hour period for ALA metabolism.
(§3) Each animal's flanks were cleansed, clipped of hair, cleansed and rinsed again, dried with a towel, mapped and divided into 4 cm×7 cm rectangular areas for the test spots. Each test area received an injection of a given ALA concentration, with appropriate control sites, which received either no treatments, ALA alone, or light exposure alone. After the ALA injections, the skin surface was wiped clean again. Three hours after ALA administration, each test area was used for repeated measurements of (1) digital fluorescence photography to document the gross distribution of porphyrin synthesis; and (2) 8-mm skin biopsies obtained from at least 2 sites for each condition prior to light exposure, for evaluation of porphyrin distribution by fluorescence microscopy. After the 3-hour-incubation skin biopsies, red light exposures were performed using a 635 nm LED array (Omnilux, Photo Therapeutics, Inc, Cheshire, UK), delivered at 100 mW/cm^2 irradiance. Biopsies were taken from the control sites at the same times as from test sites, to control for the unlikely possibility that the small amount of ALA injected would cause a systemic level sufficient to stimulate remote synthesis of porphyrins. Measurements and biopsies were repeated after 24 hours, prior to euthanasia.
Fluorescence photography was performed using a 420 nm bandwidth excitation filter, and >600 nm long pass emission filter mounted on a digital camera (Nikon D70, Nikon Corporation, Tokyo, Japan) with fixed-focus and fixed-field with 10 cm field of view. A fluorescent tape (Small Flags—Pink, Redi-Tag Corporation, Cypress, Calif., USA) was attached to the fixed-field area to compare the fluorescence produced from the skin. Fluorescence photography was performed at baseline, after 3 hours of incubation, immediately after red light exposure, and 24 hours after the application of the drug for each ALA application and control test sites.
Every gross fluorescent photograph was analyzed using the WCIF—Image J 1.37c software—Wayne Rasband National Institutes of Health, USA. In this software, pixel analysis is transformed into numeric values. […]

[2] = test system: porphyrin accumulation in cutaneous structures; assay: Fluorescence microscopy of fresh-frozen skin biopsies for porphyrin (PpIX) distribution; type: in vivo, Yorkshire swine
From the text: as §1, §2, §3
(§4) From each experimental skin area, a series 8 mm punch biopsies were taken and immediately split vertically in half with a razor blade. For each biopsy, half was prepared as a fresh-frozen specimen to localize the PpIX accumulation by fluorescence microscopy. The other half was processed for routine hematoxylin-eosin (H&E) staining. At baseline (B0), after 3 hours of incubation (B1), and after 24 hours (B2) a biopsy was performed in each area. Biopsies for fluorescence microscopy were also taken from sites receiving light exposure, just after the light was administered. Frozen sections were cut into 15 μm thick samples and observed using fluorescence microscopy Zeiss Axiophot, Carls Zeiss MicroImaging GmbH, Gottinger, Germany at 10× magnification; samples were also imaged by confocal microscopy (True Confocal Scanner—Leica TCSNT, Leica Mikroscopie und Systeme GmbH, Heidelberg, Germany) at 40× magnification. Routine H&E histology was performed to analyze PDT effect within the skin structures. Biopsy sites were separated from each other by at least 1 cm. […]

skin = assay: Clinical examination of inflammatory response to ALA-PDT (635 nm red light); type: in vivo, Yorkshire swine
From the text: as §1, §2, §3
Clinical examination and grading of cutaneous responses were performed before, during and 1 hour after the end of the last red light exposure. This is sufficient time for an acute inflammatory response to develop. The following day, before euthanasia, final clinical evaluation was performed. Inflammatory response was graded from 0 to 3 for each site, where 0 represents no reaction; 1, mild (any redness or edema); 2, moderate (prominent redness and/or edema) and 3, severe reaction (signs of necrosis, blistering, purpura).

skin structures = assay: Histopathology (H&E) of skin structures 24 hours after ALA-PDT; type: in vivo, Yorkshire swine
From the text: as §1, §2, §3, §4

[3] = pH and stability of ALA solutions; type: physicochemical; details: unbuffered
Description: as §2

[4] = depending on the pH and the concentration of the solution; cited from earlier work
[5] = 0.5% injected ALA-PDT, 24 hours

## Cl.NCC(=O)CCC(=O)O [ALA, 5-Aminolevulinic acid hydrochloride]
[1]; 2-4 mm deep injected ALA lower than 0.0005%
  porphyrin accumulation by gross fluorescence: low but detectable level of porphyrin accumulation
[1]; 3 hours after intradermal administration, solutions 1.0% to 0.0005%
  lowest injected ALA concentration with positive fluorescence in photographs: 0.004%
[1]; 3 hours incubation
  lowest injected ALA concentration with statistically significantly increased fluorescence vs uninjected control sites (pixel value analysis): 0.004%
[1]; ALA less than or equal to 0.002%, p≦2×10^−5
  fluorescence compared to control and light only sites: significant fluorescence
[1]; all sites, 635 nm
  fluorescence immediately after red light PDT: no fluorescence
[1]; injected ALA greater than 0.002%
  porphyrin accumulation by gross fluorescence: dose-dependent porphyrin accumulation
[2]; down to and including
  lowest injected ALA concentration inducing porphyrin accumulation: 0.0005%
[2]; in vivo
  injected ALA concentration at which epithelial skin structures (hair follicles, sebaceous glands, epidermis) showed fluorescence: ≥ 0.25%
[2]; injected ALA 0.0005%
  subcutaneous fat fluorescence: present
[2]; injected ALA 0.50%
  vessel fluorescence: Some vessels also fluoresced
[2]; injected ALA 1.0% and 0.5%, prior to light
  epidermal fluorescence: Full thickness epidermal fluorescence
[2]; injected ALA 1% to 0.03%
  fluorescence of superficial and deep hair follicles: mostly present
[2]; injected ALA below 0.06%
  epidermal fluorescence: negative
  stratum corneum fluorescence: positive fluorescence
[2]; injected ALA ≦0.002%, 2-4 mm deep
  localisation of porphyrin fluorescence: limited to the area where the drug was injected
[2]; injected ALA ≧0.03%
  eccrine gland porphyrin fluorescence: strong porphyrin fluorescence
[2]; injected ALA, all concentrations tested, fading with dilution
  superficial fat fluorescence: strong fluorescence
[2]; injected, prior to light
  lowest ALA concentration with sebaceous gland fluorescence: 0.50%
[2]; injected, less intense but still positive
  lowest ALA concentration with positive eccrine gland fluorescence: 0.005%
skin; 24 hours after PDT
  lowest injected ALA concentration with clinical reaction (mild erythema): 0.016%
skin; all sites
  Nikolski sign: negative
skin; injected ALA 0.0005% (lowest concentration)
  clinical response after light exposure: no significant clinical residuum
skin; injected ALA 0.25%-1.00%, necrosis generally after 24 hours
  clinical response after PDT: extensive purpura with skin necrosis
skin; injected ALA and light exposure, after 24 hours
  gross skin reaction: much more uniform gross skin reaction
skin; injected ALA from 0.016% to 1.0%
  clinical response during red light irradiation: intense vasospasm
skin; injected ALA less or equal to 0.016%, light 3 hours after injection
  clinical response after light exposure: only erythematous macules near each injection puncture site
skin; intradermal injection, 3-hour incubation
  reaction to ALA injection before light exposure: mild transient “bleb” papule
skin; topical 20% ALA and light exposure, after 24 hours
  skin response: non-uniform skin response, with much greater inflammation around hair follicles
Skin structures; 0.002% injected ALA-PDT
  fat septae damage: Massive fat septae necrosis
Skin structures; 0.5% injected ALA-PDT
  damage to hair follicle, adnexal glands and fat: Non-selective destruction
Skin structures; [5]
  epidermis changes: no relevant changes
  superficial vessel findings: superficial vessel inflammation with blood stagnation
Skin structures; all ALA concentrations, more so 1% to 0.06%
  eccrine gland damage: Massive eccrine gland necrosis
Skin structures; all injected ALA concentrations
  fat damage: observed with all concentrations
Skin structures; all samples, 24 hours after PDT
  epidermis reaction: little or no reaction
Skin structures; injected ALA 0.0005% (most diluted)
  vascular destruction in deep vessels of the fat septae: maximal vascular destruction
Skin structures; injected ALA 0.0005-0.016%
  fat damage intensity: more intense
Skin structures; injected ALA 0.016 to 0.0005% (≦0.016%), 2-4 mm deep, hydrochloride
  fat effect at very low concentrations: localized fat necrosis without clinical evidence of inflammation; also recorded: targeted fat and deep vessels without clinical inflammation
Skin structures; injected ALA 0.06%
  superficial fat inflammation: mild inflammation
Skin structures; injected ALA 0.06%, hydrochloride
  eccrine gland selectivity of damage: selective destruction of some eccrine glands; also recorded: Selective eccrine gland damage; also recorded: selectively targeted eccrine glands; also recorded: Selective reaction of eccrine glands
Skin structures; injected ALA 0.25-1.00%, 24 hours after PDT
  vascular findings in superficial and deep vessels: extensive perivascular and vascular mixed inflammatory cell infiltrates
Skin structures; injected ALA ≧0.25% with high fluence red light
  vascular PDT reaction: potent vascular PDT reaction
Skin structures; injected ALA-PDT
  apocrine gland damage: signs of some preferential damage
Skin structures; mainly injected ALA 1%-0.016%
  perifollicular inflammation: mild perifollicular inflammation
[3]; 0.004 to 0.0005% ALA in normal saline
  ALA solution pH: ~7
[3]; 0.250 to 0.008% ALA in normal saline
  ALA solution pH: ~5
[3]; 0.500% ALA in normal saline
  ALA solution pH: ~3
[3]; 1.000% ALA in normal saline
  ALA solution pH: ~1
[4]
  stability of aqueous solutions: unstable over long periods
